Laboratory results reported in paper PMC10764104, “Discovery of Molecular Glue Degraders via Isogenic Morphological Profiling” (ACS Chemical Biology, 2023).

Molecular target: T1, GSPT2 G566N (Homo sapiens, UniProt Q8IYD1, G566N)
T1 construct: expressed in transfected cells; host or cells: RKO cells, lentiviral transduction, puromycin-selected
Assay: Western blot (HA-tag) of G-loop mutant GSPT2 in RKO cells
Assay type: cell-based
Details: RKO cells stably overexpressing HA-GSPT2 G566N, 16 h; 10 μM FL2-14 or 10 nM CC-885
Procedure: Figure 3 FL2-14 is a selective GSPT2 molecular glue degrader. (A) Structure of FL2-14 comprising fluorosulfate scaffold FL2 (black) and tail group modification 14 (blue). (B) DMSO-normalized quantitative proteomics after 16 h of treatment with FL2-14 (10 μM) in RKO WT (n = 2). […] (C) Structural alignment of AlphaFold models of GSPT1 (AF-P15170-F1-model_v4 in gray) and GSPT2 (AF-Q8IYD1-F1-model_v4 in blue). (D) Validation of GSPT2 degradation by FL2-14. […] (E) Dose–response of FL2-14 in RKO and HEK293T cells. Cells were treated with the FL2-14 (0 to 10 μM) for 16 h. (F) Degradation of GSPT2^WT or GSPT2^G566N.
Prediction of the G‐loop degron sequence in GSPT2
We first compiled all CRBN degron sequences with known crystal structures (Table S 2). We subsequently discarded 6UML as its degron sequence included an alanine instead of the typical glycine observed in the seventh amino acid residue of other degron sequences, leaving six degron sequences. We then scanned the latest AlphaFold structure of GSPT215 for a potential stretch of 10 amino acids that would align best with each degron sequence. We yielded the same stretch of amino acid residues from position 560 to 569 ([…]) and RMSD values under 0.5 Å.
Table S 2: List of crystal structures used for the computational prediction of the G‐loop degron sequence […]
PDB code Resolution (Å) Chain Segment Sequence Reference
Analysis of G‐loop mutation […]

T1 sequence (Q8IYD1 whole entry G566N): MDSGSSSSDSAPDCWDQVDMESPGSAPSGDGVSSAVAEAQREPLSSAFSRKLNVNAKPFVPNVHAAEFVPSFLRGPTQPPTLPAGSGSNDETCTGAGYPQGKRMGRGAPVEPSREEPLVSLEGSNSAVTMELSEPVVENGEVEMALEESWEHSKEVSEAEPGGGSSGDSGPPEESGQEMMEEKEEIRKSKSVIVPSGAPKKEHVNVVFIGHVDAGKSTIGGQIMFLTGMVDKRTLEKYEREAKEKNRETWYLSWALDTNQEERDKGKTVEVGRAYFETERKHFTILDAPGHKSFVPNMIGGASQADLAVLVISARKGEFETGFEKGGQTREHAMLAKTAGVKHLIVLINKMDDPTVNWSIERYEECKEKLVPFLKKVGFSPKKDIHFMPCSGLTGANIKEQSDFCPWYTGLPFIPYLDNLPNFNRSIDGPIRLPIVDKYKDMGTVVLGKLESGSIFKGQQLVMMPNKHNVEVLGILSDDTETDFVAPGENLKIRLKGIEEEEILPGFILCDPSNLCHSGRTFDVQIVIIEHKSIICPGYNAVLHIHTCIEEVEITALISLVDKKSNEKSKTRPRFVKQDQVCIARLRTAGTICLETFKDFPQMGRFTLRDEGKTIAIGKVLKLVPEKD

CN(Cc1ncc(C2CC2)o1)S(=O)(=O)Oc1ccc(Nc2ccc3c(c2)C(=O)N(C2CCC(=O)NC2=O)C3=O)cc1 (stereo not shown) [FL2-14]
degradation of HA-tagged GSPT2 G566N (glycine of G-loop replaced by asparagine): rescued degradation of GSPT2
